According to patent publication US8802597B2, “Herbicidal pyrimidines” (E I du Pont de Nemours and Company, priority 2003, dated 2014):
Like-named read-outs stand apart in the source and are kept apart here.

Columns and labels:
Assay in all cases: Test A pre/postemergence
Type in all cases: in vivo
[1] = tested on: redroot pigweed (Amaranthus retroflexus); conditions: for pest or weed control at 125 g/ha / pest or weed control at 500 g/ha: Amaranthus retroflexus, 240 h, read-out: Plant response rating, Pigweed
In short: (§1)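 Soil: loam blended with sand. Formulation: non-phytotoxic solvent mixture with surfactant. Timing: preemergence soil spray plus concurrent postemergence spray (plants 2–10 cm, 1–2 leaves). Readout: visual injury versus untreated controls at ~10 days, 0–100.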

[2] = tested on: morningglory (Ipomoea spp.); conditions: for pest or weed control at 125 g/ha / pest or weed control at 500 g/ha: Ipomoea, 240 h, read-out: Plant response rating, Morningglory
In short: as §1

[3] = tested on: velvetleaf (Abutilon theophrasti); conditions: for pest or weed control at 125 g/ha / pest or weed control at 500 g/ha: Abutilon theophrasti, 240 h, read-out: Plant response rating, Velvetleaf
In short: as §1

[4] = tested on: barnyardgrass (Echinochloa crus-galli); conditions: for pest or weed control at 125 g/ha / pest or weed control at 500 g/ha: Echinochloa crus-galli, 240 h, read-out: Plant response rating, Barnyardgrass
In short: as §1

[5] = tested on: crabgrass (Digitaria sanguinalis); conditions: for pest or weed control at 125 g/ha / pest or weed control at 500 g/ha: Digitaria sanguinalis, 240 h, read-out: Plant response rating, Crabgrass
In short: as §1

[6] = tested on: giant foxtail (Setaria faberi); conditions: for pest or weed control at 125 g/ha / pest or weed control at 500 g/ha: Setaria faberi, 240 h, read-out: Plant response rating, Foxtail, Giant
In short: as §1

[7] = Postemergence, 125 g ai/ha, 0 to 100 scale (0 no effect, 100 complete control)
[8] = Postemergence, 500 g ai/ha, 0 to 100 scale (0 no effect, 100 complete control)
[9] = Preemergence, 125 g ai/ha, 0 to 100 scale where 0 is no effect and 100 is complete control, approximately ten days
[10] = Preemergence, 500 g ai/ha, 0 to 100 scale where 0 is no effect and 100 is complete control, approximately ten days
[11] = post-emergence, Postemergence, 125 g ai/ha, 0 to 100 scale (0 no effect, 100 complete control)
[12] = post-emergence, Postemergence, 500 g ai/ha, 0 to 100 scale (0 no effect, 100 complete control)
[13] = pre-emergence, Preemergence, 125 g ai/ha, 0 to 100 scale where 0 is no effect and 100 is complete control, approximately ten days
[14] = pre-emergence, Preemergence, 500 g ai/ha, 0 to 100 scale where 0 is no effect and 100 is complete control, approximately ten days

For `Cc1ccc(-c2nc(N)c(Cl)c(C(=O)O)n2)cc1` [Compound 91], the “Plant response rating, Pigweed” value [1, 7] was 55, the “Plant response rating, Pigweed” value [1, 8] was 100 and the “Plant response rating, Pigweed” value [1, 9] was 100. For the same compound, the “Plant response rating, Pigweed” value [1, 10] was 100, the “Plant response rating, Morningglory” value [2, 7] was 5 and the “Plant response rating, Morningglory” value [2, 8] was 30. The “Plant response rating, Morningglory” value [2, 9] was 5, the “Plant response rating, Morningglory” value [2, 10] was 50 and the “Plant response rating, Velvetleaf” value [3, 7] was 75. For the same compound, the “Plant response rating, Velvetleaf” value [3, 8] was 95, the “Plant response rating, Velvetleaf” value [3, 9] was 80 and the “Plant response rating, Velvetleaf” value [3, 10] was 100. For the same compound, the “Plant response rating, Barnyardgrass” value [4, 7] was 75, the “Plant response rating, Barnyardgrass” value [4, 8] was 90 and the “Plant response rating, Barnyardgrass” value [4, 9] was 5. For the same compound, the “Plant response rating, Barnyardgrass” value [4, 10] was 80, the “Plant response rating, Crabgrass” value [5, 7] was 5 and the “Plant response rating, Crabgrass” value [5, 8] was 15. For the same compound, the “Plant response rating, Crabgrass” value [5, 9] was 25, the “Plant response rating, Crabgrass” value [5, 10] was 75 and the “Plant response rating, Foxtail, Giant” value [6, 7] was 5. The “Plant response rating, Foxtail, Giant” value [6, 8] was 75, the “Plant response rating, Foxtail, Giant” value [6, 9] was 0 and the “Plant response rating, Foxtail, Giant” value [6, 10] was 25.
In the case of `COC(=O)c1nc(-c2ccc(Br)cc2)nc(N)c1Cl` [Compound 96, methyl 6-amino-2-(4-bromophenyl)-5-chloro-4-pyrimidinecarboxylate], the pest or weed control at 125 g/ha [1, 11] is reported as 70%, the pest or weed control at 500 g/ha [1, 12] is reported as 85% and the pest or weed control at 125 g/ha [1, 13] is reported as 80%. It also gave a pest or weed control at 500 g/ha [1, 14] of 80%, a pest or weed control at 125 g/ha [2, 11] of 60% and a pest or weed control at 500 g/ha [2, 12] of 65%. The pest or weed control at 125 g/ha [2, 13] was 15%, the pest or weed control at 500 g/ha [2, 14] was 80% and the pest or weed control at 125 g/ha [3, 11] was 80%. For the same compound, the pest or weed control at 500 g/ha [3, 12] was 85%, the pest or weed control at 125 g/ha [3, 13] was 65% and the pest or weed control at 500 g/ha [3, 14] was 80%. The pest or weed control at 125 g/ha [4, 11] was 20%, the pest or weed control at 500 g/ha [4, 12] was 25% and the pest or weed control at 125 g/ha [4, 13] was 5%. For the same compound, the pest or weed control at 500 g/ha [4, 14] was 10%, the pest or weed control at 125 g/ha [5, 11] was 5% and the pest or weed control at 500 g/ha [5, 12] was 20%. It also gave a pest or weed control at 125 g/ha [5, 13] of 50%, a pest or weed control at 500 g/ha [5, 14] of 65% and a pest or weed control at 125 g/ha [6, 11] of 25%. The pest or weed control at 500 g/ha [6, 12] was 35%, the pest or weed control at 125 g/ha [6, 13] was 5% and the pest or weed control at 500 g/ha [6, 14] was 10%.
With `Nc1nc(C2CC2)nc(C(=O)[O-])c1Br.[Na+]` [Compound 113, 6-amino-5-bromo-2-cyclopropyl-4-pyrimidinecarboxylic acid monosodium salt] the pest or weed control at 125 g/ha [1, 11] was 80%, the pest or weed control at 500 g/ha [1, 12] was 90% and the pest or weed control at 125 g/ha [1, 13] was 80%. The pest or weed control at 500 g/ha [1, 14] was 90%, the pest or weed control at 125 g/ha [2, 11] was 90% and the pest or weed control at 500 g/ha [2, 12] was 90%. The pest or weed control at 125 g/ha [2, 13] was 90%, the pest or weed control at 500 g/ha [2, 14] was 100% and the pest or weed control at 125 g/ha [3, 11] was 80%. It also gave a pest or weed control at 500 g/ha [3, 12] of 95%, a pest or weed control at 125 g/ha [3, 13] of 65% and a pest or weed control at 500 g/ha [3, 14] of 95%. For the same compound, the pest or weed control at 125 g/ha [4, 11] was 55%, the pest or weed control at 500 g/ha [4, 12] was 90% and the pest or weed control at 125 g/ha [4, 13] was 25%. The pest or weed control at 500 g/ha [4, 14] was 80%, the pest or weed control at 125 g/ha [5, 11] was 25% and the pest or weed control at 500 g/ha [5, 12] was 55%. It also gave a pest or weed control at 125 g/ha [5, 13] of 15%, a pest or weed control at 500 g/ha [5, 14] of 70% and a pest or weed control at 125 g/ha [6, 11] of 65%. For the same compound, the pest or weed control at 500 g/ha [6, 12] was 85%, the pest or weed control at 125 g/ha [6, 13] was 15% and the pest or weed control at 500 g/ha [6, 14] was 80%.
In the case of `COC(=O)c1nc(-c2ccc(I)cc2)nc(N)c1Br` [Compound 128], the “Plant response rating, Pigweed” value [1, 7] is reported as 55, the “Plant response rating, Pigweed” value [1, 8] is reported as 75 and the “Plant response rating, Pigweed” value [1, 9] is reported as 0. The “Plant response rating, Pigweed” value [1, 10] was 0, the “Plant response rating, Morningglory” value [2, 7] was 55 and the “Plant response rating, Morningglory” value [2, 8] was 80. For the same compound, the “Plant response rating, Morningglory” value [2, 9] was 0, the “Plant response rating, Morningglory” value [2, 10] was 0 and the “Plant response rating, Velvetleaf” value [3, 7] was 65. For the same compound, the “Plant response rating, Velvetleaf” value [3, 8] was 80, the “Plant response rating, Velvetleaf” value [3, 9] was 0 and the “Plant response rating, Velvetleaf” value [3, 10] was 0. For the same compound, the “Plant response rating, Barnyardgrass” value [4, 7] was 0, the “Plant response rating, Barnyardgrass” value [4, 8] was 0 and the “Plant response rating, Barnyardgrass” value [4, 9] was 0. The “Plant response rating, Barnyardgrass” value [4, 10] was 0, the “Plant response rating, Crabgrass” value [5, 7] was 0 and the “Plant response rating, Crabgrass” value [5, 8] was 0. For the same compound, the “Plant response rating, Crabgrass” value [5, 9] was 0, the “Plant response rating, Crabgrass” value [5, 10] was 0 and the “Plant response rating, Foxtail, Giant” value [6, 7] was 0. The “Plant response rating, Foxtail, Giant” value [6, 8] was 0, the “Plant response rating, Foxtail, Giant” value [6, 9] was 0 and the “Plant response rating, Foxtail, Giant” value [6, 10] was 0.
For `COC(=O)c1nc(-c2ccc(Br)cc2)nc(N)c1Br` [Compound 129], the “Plant response rating, Pigweed” value [1, 7] was 80, the “Plant response rating, Pigweed” value [1, 8] was 85 and the “Plant response rating, Pigweed” value [1, 9] was 0. For the same compound, the “Plant response rating, Pigweed” value [1, 10] was 15, the “Plant response rating, Morningglory” value [2, 7] was 60 and the “Plant response rating, Morningglory” value [2, 8] was 70. The “Plant response rating, Morningglory” value [2, 9] was 0, the “Plant response rating, Morningglory” value [2, 10] was 0 and the “Plant response rating, Velvetleaf” value [3, 7] was 80. For the same compound, the “Plant response rating, Velvetleaf” value [3, 8] was 90, the “Plant response rating, Velvetleaf” value [3, 9] was 0 and the “Plant response rating, Velvetleaf” value [3, 10] was 5. For the same compound, the “Plant response rating, Barnyardgrass” value [4, 7] was 0, the “Plant response rating, Barnyardgrass” value [4, 8] was 0 and the “Plant response rating, Barnyardgrass” value [4, 9] was 0. For the same compound, the “Plant response rating, Barnyardgrass” value [4, 10] was 0, the “Plant response rating, Crabgrass” value [5, 7] was 0 and the “Plant response rating, Crabgrass” value [5, 8] was 0. The “Plant response rating, Crabgrass” value [5, 9] was 0, the “Plant response rating, Crabgrass” value [5, 10] was 0 and the “Plant response rating, Foxtail, Giant” value [6, 7] was 0. For the same compound, the “Plant response rating, Foxtail, Giant” value [6, 8] was 0, the “Plant response rating, Foxtail, Giant” value [6, 9] was 0 and the “Plant response rating, Foxtail, Giant” value [6, 10] was 0.
